What is called solubility is the concentration that dissolves in the medium under given conditions.

Data on 2 compounds can be found in PMC6591251, “Discovery of potent necroptosis inhibitors targeting RIPK1 kinase activity for the treatment of inflammatory disorder and cancer metastasis” (Cell Death & Disease, 2019).

Each structure is given as a SMILES string. Values after ≈ are worked out from the molar mass of the structure shown.

Data set [1] relates to TNF-induced systemic inflammatory response syndrome. Description: TNF-induced SIRS mouse model. It counts as in vivo, C57BL/6 mice. As to conditions: for protection against TNFα-induced lethal shock: PK6 30 mg/kg, PK68 1 mg/kg ip, 15 min before TNF-α 6 μg per mouse. The method, then: Necroptosis is involved in a variety of inflammatory disorders such as TNF-induced SIRS[11],[12]. We therefore evaluated the therapeutic effect of PK68 in a mouse model of TNF-induced SIRS. C57BL/6 mice were treated with vehicle, PK6, or PK68 for 15 min prior to intravenous injection of mouse TNFα (6 µg TNFα per mouse). […] SIRS is associated with systemic release of proinflammatory cytokines and tissue injuries. […] Moreover, TNF-induced damage of the colon was attenuated by the treatment of PK68 (Fig. 7d).
Fig. 7 PK68 ameliorates TNF-induced systemic inflammatory response syndrome. C57BL/6 mice (n = 11) were injected with vehicle, PK6 (30 mg/kg), or PK68 (1 mg/kg) via intraperitoneal injection for 15 min, followed by the tail intravenous injection of mouse TNF-α (6 μg per mouse). a, b The survival rate (a) and body temperature loss (b) were monitored. c, d C57BL/6 mice (n = 5) were injected with vehicle or PK68 (1 mg/kg) for 15 min prior to the injection of mouse TNF-α. The mice were sacrificed 4 h after TNF-α administration, the serum concentration of IL-1β was measured by ELISA kits (c), and histology of the colon tissue was analyzed by H&E staining and the representative images are shown (d). The serum or colon tissue from C57BL/6 mice was used as the control (Normal). Magnification: ×100 (left) and ×200 (right). Data represent mean value ± standard deviation. *P < 0.05. **P < 0.01. ***P < 0.001
PK6 and PK68 were diluted into sterile PBS. C57BL/6 mice were pretreated with vehicle, PK6 (30 mg/kg), or PK68 (1 mg/kg) via intraperitoneal injection for around 15 min and then challenged with mouse TNF-α (6 μg per mouse) via tail intravenous injection. Mice mortality was continuously monitored till 72 h after TNF-α administration. The serum and colon tissue are collected at 4 h post TNF-α challenge.

Data set [2] has as its system rat bone marrow-derived macrophages. The data set is described as follows: TNFR- and TLR-mediated necroptosis. It counts as cell-based. The following applies: rat BMDM; PK6 10 μM, PK68 100 nM; 24–30 h. From the text: In addition to TNF-induced necroptosis, it is known that TLR3 or TLR4 activation can also trigger necroptosis. We further evaluated the effects of PK6 and PK68 on TLR3- and TLR4-mediated necroptosis induced by poly(I:C)/z-VAD and LPS/z-VAD, respectively. […] To investigate the molecular mechanism of PK series-mediated necroptosis inhibition, we examined the effects of these compounds on the major steps of necroptotic signaling, including activation of RIPK1, RIPK3, and MLKL. […] It has been shown previously that RIPK3 activation leads to the formation of RIPK3 puncta during necroptosis.
Fig. 3 PK6 and PK68 block cellular activation of RIPK1, RIPK3, and MLKL upon necroptotic stimuli. a, b Bone marrow-derived macrophages from C57BL/6 mice or rat were pretreated with DMSO, PK6(10 μM), or PK68 (100 nM) for 1 h and subsequently treated with indicated stimuli for 24–30 h. Cell viability was determined by measuring ATP levels. L, LPS (20 ng/ml); P, poly(I:C) (50 μg/ml); S (100 nM); Z (10 μM). […] The distribution of RIPK3 was detected by immunofluorescence. *P < 0.05. **P < 0.01. ***P < 0.001 […]
The cell viability was analyzed by using the CellTiter-Glo Luminescent Cell Viability Assay kit following the manufacturer’s instructions (Promega). Luminescence was measured with SpectraMax i3x (Molecular Devices).

The nature of data set [3]: Solubility in FaSSIF, LC/MS/MS. The data set is classed as physicochemical. As to conditions: for solubility: pH= 6.5 FaSSIF, LC/MS/MS, duplicates. The method, then: ^a Calculated by ACDlabs. ^b Data are measured duplicates in pH= 6.5 FaSSIF using LC/MS/MS. ^c Data are determined three times by SMP10 melting point apparatus.

For `CC(=O)Nc1nc2ccc(-c3cnc(C)c(NC(=O)OC4CCCCC4)c3)cc2s1` [PK68, cyclohexyl (5-(2-acetamidobenzo[d]thiazol-6-yl)-2-methylpyridin-3-yl)carbamate], the TNFα-induced temperature loss entry in data set [1] (1 mg/kg ip) was “strongly reduced”. The “TNF-induced damage of the colon” value in data set [1] (1 mg/kg, 4 h after TNF-α) is “attenuated”. In addition, the “production of proinflammatory cytokines including IL-1β” value in data set [1] (1 mg/kg, serum 4 h after TNF-α) was “significantly ameliorated”. Moreover, the “protection against TNFα-induced lethal shock” value in data set [1] is given as “effective protection”. Further, the “TNFR- and TLR-mediated necroptosis” value in data set [2] is recorded as “showed inhibitory effects”. The concentration in solution in data set [3] (solubility) was 0.56 µg/mL (≈ 1.32 µM).
Regarding `CC(=O)Nc1nc2ccc(-c3cnc(Cl)c(NC(=O)Cc4ccccc4)c3)cc2s1` [PK6, N-(5-(2-acetamidobenzo[d]thiazol-6-yl)-2-chloropyridin-3-yl)-2-phenylacetamide], the “protection against TNFα-induced lethal shock” value in data set [1] was “effective protection”. Besides, the “TNFR- and TLR-mediated necroptosis” value in data set [2] was “showed inhibitory effects”. In data set [3], the “solubility (in words)” value was “poor” and the concentration in solution (solubility) came to 0.09 µg/mL (≈ 0.206 µM).
